Results from the Kinase Knowledgebase extract (Sharma et al. 2016).

biological target: CDK2 (UniProt P24941); test: Enzyme Assay; settings: not given

| SMILES | Ki [nM] |
| --- | --- |
| Nc1nc(Nc2ccc(S(N)(=O)=O)cc2)sc1-c1nc(-c2cc3ccccc3s2)cs1 | 3200 |
| Nc1nc(Nc2ccc(S(N)(=O)=O)cc2)sc1-c1nc(C(=O)Nc2ccccc2)cs1 | 58 |
| COc1cc(O)c(Br)c(-c2csc(-c3sc(Nc4cc(OC)c(OC)c(OC)c4)nc3N)n2)c1 | 710 |

same assay, conditions: concentration not given here

| SMILES | inhibition [%] |
| --- | --- |
| CCc1cc2c(cc1-c1csc(-c3sc(Nc4cc(OC)c(OC)c(OC)c4)nc3N)n1)C(C)(C)CCC2(C)C | 13.8 |
| COc1cc(Nc2nc(N)c(-c3nc(-c4ccc[nH]4)cs3)s2)cc(OC)c1OC | 14.3 |
| CC(C)c1ccc(Nc2nc(N)c(-c3nc(-c4ccc5oc6ccccc6c5c4)cs3)s2)cc1 | -4.3 |
| Cc1c(-c2csc(-c3sc(Nc4ccc(N(C)C)cc4)nc3N)n2)sc2ccc(Cl)cc12 | 27.2 |
| CC(C)c1ccc(Nc2nc(N)c(-c3nc(-c4ccc(Cl)cc4Cl)cs3)s2)cc1 | 15.1 |
| CCCCCc1ccc(-c2csc(-c3sc(Nc4cc(OC)c(OC)c(OC)c4)nc3N)n2)cc1 | 11.3 |
| COc1cc(Nc2nc(N)c(C3=NC(c4cc(F)c(C)c(Cl)c4)CS3)s2)cc(OC)c1OC (stereo unspecified) | -7.5 |
| COc1ccc(OC)c(-c2csc(-c3sc(Nc4cc(OC)c(OC)c(OC)c4)nc3N)n2)c1 | 12.2 |
| COc1cc(Nc2nc(N)c(-c3nc(-c4ccc(F)cc4)cs3)s2)cc(OC)c1OC | 35 |
| COc1ccccc1-c1csc(-c2sc(Nc3ccc(N(C)C)cc3)nc2N)n1 | -6.4 |
| Cc1c(-c2csc(-c3sc(Nc4ccc(C(C)C)cc4)nc3N)n2)sc2ccc(Cl)cc12 | 34.8 |
| COc1cc(Nc2nc(N)c(-c3nc(-c4csc5ccccc45)cs3)s2)cc(OC)c1OC | 9.1 |
| COc1cc(Nc2nc(N)c(-c3nc(-c4ccc(CC(=O)O)s4)cs3)s2)cc(OC)c1OC | 26.7 |
| COc1cc(Nc2nc(N)c(-c3nc(-c4c(Cl)cc(C(F)(F)F)cc4Cl)cs3)s2)cc(OC)c1OC | -6 |
| Cc1c(-c2csc(-c3sc(Nc4ccc(S(N)(=O)=O)cc4)nc3N)n2)sc2ccc(Cl)cc12 | 61.5 |
| Cc1c(F)cc(-c2csc(-c3sc(Nc4ccc(S(N)(=O)=O)cc4)nc3N)n2)cc1Cl | 25 |
| COc1cc(Nc2nc(N)c(-c3nc(-c4ccc(O)cc4)cs3)s2)cc(OC)c1OC | 3 |
| COc1cccc(-c2csc(-c3sc(Nc4cc(OC)c(OC)c(OC)c4)nc3N)n2)c1 | -0.4 |
| COc1cc(Nc2nc(N)c(-c3nc(-c4cc(C)c(O)c(C)c4)cs3)s2)cc(OC)c1OC | 28.4 |
| Nc1nc(Nc2ccc(S(N)(=O)=O)cc2)sc1C1=NC2(O)OCCC2S1 (stereo unspecified) | 29 |
| COc1cc(Nc2nc(N)c(-c3nc(-c4c(Cl)c(Cl)nc(Cl)c4Cl)cs3)s2)cc(OC)c1OC | 10.3 |

| SMILES | inhibition [%] |
| --- | --- |
| COc1cc(Nc2nc(N)c(-c3nc(-c4ccc5ccccc5c4)cs3)s2)cc(OC)c1OC | 11.6 |
| COc1cc(Nc2nc(N)c(-c3nc(-c4cc(-c5ccc(Cl)c(Cl)c5)no4)cs3)s2)cc(OC)c1OC | 17.5 |
| CCOC(=O)c1cc(-c2csc(-c3sc(Nc4cc(OC)c(OC)c(OC)c4)nc3N)n2)on1 | 23.2 |
| COc1cc(Nc2nc(N)c(-c3nc(-c4cc(C(=O)C(Cl)(Cl)Cl)n(C)c4)cs3)s2)cc(OC)c1OC | 3.9 |
| COc1cc(Nc2nc(N)c(-c3noc(-c4ccsc4)n3)s2)cc(OC)c1OC | 21 |
| COc1cc(Nc2nc(N)c(-c3nc(-c4c(C)c(C)c(C)c(C)c4C)cs3)s2)cc(OC)c1OC | 19.8 |
| CCCCCc1ccc(-c2csc(-c3sc(Nc4ccc(N(C)C)cc4)nc3N)n2)cc1 | -6 |
| COc1cc(Nc2nc(N)c(-c3nc(-c4ccc([N+](=O)[O-])cc4)cs3)s2)cc(OC)c1OC | -14.4 |
| COc1cc(Nc2nc(N)c(-c3nc(-c4cc(Br)c(Cl)s4)cs3)s2)cc(OC)c1OC | -0.2 |
| COc1cc(Nc2nc(N)c(-c3nc(-c4ccc(Cl)cc4Cl)cs3)s2)cc(OC)c1OC | 3.8 |
| COc1cc(Nc2nc(N)c(-c3nc(-c4cccc(Br)c4)cs3)s2)cc(OC)c1OC | 15.6 |
| COc1cc(Nc2nc(N)c(-c3nc(-c4ccc5c(c4)C(C)(C)CCC5(C)C)cs3)s2)cc(OC)c1OC | 4.2 |
| CN(C)c1ccc(Nc2nc(N)c(-c3nc(-c4ccccc4[N+](=O)[O-])cs3)s2)cc1 | 8.3 |
| COc1cc(Nc2nc(N)c(-c3nc(-c4cc(-c5ccccc5)no4)cs3)s2)cc(OC)c1OC | 11.2 |
| COc1cc(Nc2nc(N)c(-c3nc(-c4cccc(OC(=O)c5ccccc5)c4)cs3)s2)cc(OC)c1OC | -12.3 |
| COc1ccc2nc(-c3ccccc3)c(-c3csc(-c4sc(Nc5cc(OC)c(OC)c(OC)c5)nc4N)n3)cc2c1 | -2.7 |
| COc1cc(Nc2nc(N)c(-c3nc(-c4ccc5oc6ccccc6c5c4)cs3)s2)cc(OC)c1OC | 19 |
| COc1cc(Nc2nc(N)c(-c3nc(-c4ccc5c(c4)OCCO5)cs3)s2)cc(OC)c1OC | 5.4 |
| Nc1nc(Nc2ccc(S(N)(=O)=O)cc2)sc1-c1nc(-c2ccc(-c3ccccc3)cc2)cs1 | 0 |
| Nc1nc(Nc2ccc(S(N)(=O)=O)cc2)sc1-c1nc(-c2ccc(F)cc2)cs1 | 27 |
| COc1cc(Nc2nc(N)c(-c3nc(-c4ccc(C)cc4)cs3)s2)cc(OC)c1OC | -2.1 |

| SMILES | inhibition [%] |
| --- | --- |
| COc1cc(Nc2nc(N)c(-c3nc(-c4cc(C)sc4C)cs3)s2)cc(OC)c1OC | 7.3 |
| COc1cc(Nc2nc(N)c(-c3nc(-c4ccc(O)c(O)c4)cs3)s2)cc(OC)c1OC | -10.3 |
| CCOC(=O)c1ccccc1-c1csc(-c2sc(Nc3cc(OC)c(OC)c(OC)c3)nc2N)n1 | 4.4 |
| COc1cc(Nc2nc(N)c(-c3nc(-c4c(-c5ccccc5)noc4C)cs3)s2)cc(OC)c1OC | 13.6 |
| Nc1nc(Nc2ccc(S(N)(=O)=O)cc2)sc1-c1nc(-c2ccc(F)cc2F)cs1 | 57 |
| Cc1onc(-c2ccccc2)c1-c1csc(-c2sc(Nc3ccc(S(N)(=O)=O)cc3)nc2N)n1 | -4.5 |
| Nc1nc(Nc2ccc(S(N)(=O)=O)cc2)sc1-c1nc(-c2cccc([N+](=O)[O-])c2)cs1 | 17.8 |
| COc1cc(Nc2nc(N)c(-c3nc(-c4ccccc4OC(=O)c4ccccc4)cs3)s2)cc(OC)c1OC | 4.6 |
| CCCCCc1ccc(-c2csc(-c3sc(Nc4ccc(S(N)(=O)=O)cc4)nc3N)n2)cc1 | -9.9 |
| COc1cc(Nc2nc(N)c(-c3nc(-c4ccc(C)cc4C)cs3)s2)cc(OC)c1OC | 1.2 |
| CCOC(=O)c1nc(-c2sc(Nc3ccc(S(N)(=O)=O)cc3)nc2N)sc1Cc1ccccc1 | 36 |
| N#Cc1ccc(-c2csc(-c3sc(Nc4ccc(S(N)(=O)=O)cc4)nc3N)n2)cc1 | 13.3 |
| CC(C)c1ccc(Nc2nc(N)c(-c3nc(-c4ccc(OC(=O)c5ccccc5)cc4)cs3)s2)cc1 | 7.3 |
| COc1cc(Nc2nc(N)c(-c3nc(-c4ccc(Cl)c(Cl)c4)cs3)s2)cc(OC)c1OC | 7.3 |
| COc1cc(Nc2nc(N)c(-c3nc(-c4ccc(Cl)c([N+](=O)[O-])c4)cs3)s2)cc(OC)c1OC | -4.8 |
| COc1cc(Nc2nc(N)c(-c3nc(-c4ccccc4[N+](=O)[O-])cs3)s2)cc(OC)c1OC | 1.9 |
| COc1cc(Nc2nc(N)c(-c3nc(-c4ccc(Cl)c(C)c4)cs3)s2)cc(OC)c1OC | -4.4 |
| COc1cc(Nc2nc(N)c(-c3nc(-c4ccc5c(c4)CCC(=O)N5)cs3)s2)cc(OC)c1OC | -7.8 |
| COc1ccc(-c2csc(-c3sc(Nc4ccc(C(C)C)cc4)nc3N)n2)c(OC)c1 | -22.6 |
| CCN(CC)c1ccc(-c2csc(-c3sc(Nc4cc(OC)c(OC)c(OC)c4)nc3N)n2)cc1 | 6.3 |
| COc1cc(Nc2nc(N)c(-c3nc(-c4ccc(-c5ccccc5)cc4)cs3)s2)cc(OC)c1OC | 20.4 |

| SMILES | inhibition [%] |
| --- | --- |
| Nc1nc(Nc2ccc(S(N)(=O)=O)cc2)sc1-c1nc(-c2ccc(Cl)cc2Cl)cs1 | 36 |
| COc1cc(Nc2nc(N)c(-c3nc(-c4sc5ccccc5c4C)cs3)s2)cc(OC)c1OC | 23.1 |
| CN(C)c1ccc(Nc2nc(N)c(-c3nc(-c4ccc5c(c4)CCC(=O)N5)cs3)s2)cc1 | -2.5 |
| COc1cc(Nc2nc(N)c(-c3nc(-c4ccccc4OC(C)=O)cs3)s2)cc(OC)c1OC | 1.6 |
| COc1cc(Nc2nc(N)c(-c3nc(-c4ccc(F)c(F)c4)cs3)s2)cc(OC)c1OC | -5 |
| CC(C)c1ccc(Nc2nc(N)c(-c3nc(-c4ccccc4)cs3)s2)cc1 | 20.9 |
| COc1cc(Nc2nc(N)c(-c3nc(-c4ccc(C#N)cc4)cs3)s2)cc(OC)c1OC | 15.6 |
| COc1cc(Nc2nc(N)c(-c3nc(-c4ccc(OC(=O)c5ccccc5)cc4)cs3)s2)cc(OC)c1OC | 14.6 |
| CN(C)c1ccc(Nc2nc(N)c(-c3nc(-c4cccc(OC(=O)c5ccccc5)c4)cs3)s2)cc1 | 27.1 |
| COc1cc(OC)c(-c2csc(-c3sc(Nc4cc(OC)c(OC)c(OC)c4)nc3N)n2)c(O)c1Cl | 11.8 |
| COc1cc(Nc2nc(N)c(-c3nc(-c4cc5cc(Cl)ccc5o4)cs3)s2)cc(OC)c1OC | -6 |
| COc1cc(Nc2nc(N)c(-c3nc(-c4cc(C(C)(C)C)c(O)c(C(C)(C)C)c4)cs3)s2)cc(OC)c1OC | 5.3 |
| COc1cc(Nc2nc(N)c(-c3nc(-c4ccc(Cl)cc4)cs3)s2)cc(OC)c1OC | 0.1 |
| COc1cc(Nc2nc(N)c(-c3nc(-c4ccc(-c5ccc(Cl)cc5Cl)o4)cs3)s2)cc(OC)c1OC | 12.4 |
| COc1cc(Nc2nc(N)c(-c3nc(-c4ccc(C(F)(F)F)cc4)cs3)s2)cc(OC)c1OC | 13.9 |
| COc1cc(Nc2nc(N)c(-c3nc(-c4cccc([N+](=O)[O-])c4)cs3)s2)cc(OC)c1OC | 6.6 |
| COc1cc(Nc2nc(N)c(-c3nc(-c4sc5ccc(Cl)cc5c4C)cs3)s2)cc(OC)c1OC | 9.65 |
| COc1ccccc1-c1csc(-c2sc(Nc3cc(OC)c(OC)c(OC)c3)nc2N)n1 | -3.5 |
| COC(=O)c1ccc(-c2csc(-c3sc(Nc4cc(OC)c(OC)c(OC)c4)nc3N)n2)cc1 | 0 |
| COc1ccc(-c2csc(-c3sc(Nc4cc(OC)c(OC)c(OC)c4)nc3N)n2)c(OC)c1 | 4.9 |
